For data set [1], the species on record is Mus musculus. In words: Evaluated for potency in CDF1 mice and the inhibition of body weight gain was determined. The class given is functional.
The species named for data set [2] is Mus musculus. In words: Evaluated for potency in CDF1 mice and the ability of it to decrease feed consumption was determined. Format: functional.
The species named for data set [3] is Mus musculus. Kind of data set: Feed efficiency was calculated by dividing body weight gain by feed consumption in mouse. The class given is functional.
For data set [4], the species on record is Mus musculus. Kind of data set: Compound was evaluated for its potency in CDF1 mice and the serum cholesterol levels were determined. The class given is ADME, organism-based.
Data set [5] is filed under the species Mus musculus. In words: Compound was evaluated for its potency in CDF1 mice and the serum metabolite levels were determined. The class given is ADME, organism-based.
The species named for data set [6] is Mus musculus. Kind of data set: Compound was evaluated for its potency in CDF1 mice and the serum triglyceride levels were determined. The class given is ADME, organism-based.
The species named for data set [7] is Mus musculus. Kind of data set: Compound was evaluated for its potency in CDF1 mice and the abdominal fat weight was determined. Format: functional, Abdomen.

Consider 20 compounds from ChEMBL document CHEMBL1130921, “The cholesterol metabolite cholest-4-en-3-one and its 3-oxo derivatives suppress body weight gain, body fat accumulation and serum lipid concentration in mice” (Bioorg Med Chem Lett, 1998).

In turn, `CC(C)CCC[C@@H](C)[C@H]1CC[C@H]2[C@@H]3CC[C@@H]4CC(O)CC[C@]4(C)[C@H]3CC[C@]12C` (stereo partly specified) returned a Body weight gain in the data set filed under Mus musculus [1] of 0.55 g/day. In the data set filed under Mus musculus [2], this compound had a Feed consumption of 6.1 g/day. Also, the Feed efficiency in the data set filed under Mus musculus [3] is given as 0.09.
The compound `CC(=O)OC1=CC2=CC[C@H]3[C@@H]4CC[C@H]([C@H](C)CCCC(C)C)[C@@]4(C)CC[C@@H]3[C@@]2(C)CC1` came in with a Serum cholesterol in the data set listed under Mus musculus [4] of 187.5 mg/dL. Also, in the data set filed under Mus musculus [5], the Serum metabolite is 22 mg/dL. The same compound returned a Serum triglyceride in the data set filed under Mus musculus [6] of 119.9 mg/dL. The compound also returned a Body weight gain in the data set filed under Mus musculus [1] of 0.33 g/day. The compound further yielded an Abdominal fat in the data set listed under Mus musculus [7] of 1.03 g. In the data set listed under Mus musculus [2], this compound displayed a Feed consumption of 5.64 g/day. Also, the Feed efficiency in the data set listed under Mus musculus [3] is given as 0.06.
The compound `CC(C)CCC[C@@H](C)[C@H]1CC[C@H]2[C@@H]3CC=C4CC(=O)CC[C@]4(C)[C@H]3CC[C@]12C` [CHOLEST-5-EN-3-ONE] gave a Serum cholesterol in the data set filed under Mus musculus [4] of 122.1 mg/dL. In addition, the Serum metabolite in the data set listed under Mus musculus [5] amounted to 0 mg/dL. This compound also showed a Serum triglyceride in the data set listed under Mus musculus [6] of 87.5 mg/dL. The same compound came in with a Body weight gain in the data set listed under Mus musculus [1] of -0.1 g/day. Further, the Abdominal fat in the data set listed under Mus musculus [7] was 0.48 g. Also, in the data set filed under Mus musculus [2], the Feed consumption was determined as 3.62 g/day. Also, the Feed efficiency in the data set filed under Mus musculus [3] is reported as 0.03.
Take `CC(C)CCC[C@@H](C)[C@H]1CC[C@H]2[C@@H]3CC[C@H]4CC(O)CC[C@]4(C)[C@H]3CC[C@]12C` (stereo partly specified): the Serum cholesterol in the data set filed under Mus musculus [4] was 148.1 mg/dL. For the same compound, the Serum metabolite in the data set filed under Mus musculus [5] worked out at 23 mg/dL. The same compound displayed a Serum triglyceride in the data set listed under Mus musculus [6] of 212.7 mg/dL. Moreover, the Body weight gain in the data set listed under Mus musculus [1] is 0.38 g/day. Further, the Abdominal fat in the data set listed under Mus musculus [7] is on record as 0.9 g. For the same compound, the Feed consumption in the data set listed under Mus musculus [2] is 5.45 g/day. The Feed efficiency in the data set filed under Mus musculus [3] is 0.07.
On to `CC(C)CCC[C@@H](C)[C@H]1CC[C@H]2[C@@H]3C[C@@H](O)C4=CC(=O)CC[C@]4(C)[C@H]3CC[C@]12C`, for which the Serum cholesterol in the data set filed under Mus musculus [4] was 136.7 mg/dL. The Serum metabolite in the data set listed under Mus musculus [5] came to 0 mg/dL. The same compound displayed a Serum triglyceride in the data set listed under Mus musculus [6] of 120 mg/dL. Also, the Body weight gain in the data set filed under Mus musculus [1] came out at 0.28 g/day. In the data set listed under Mus musculus [7], this compound showed an Abdominal fat of 0.8 g. The Feed consumption in the data set filed under Mus musculus [2] came out at 5.7 g/day. Besides, the Feed efficiency in the data set listed under Mus musculus [3] is 0.05.
With `CC(C)CCC[C@@H](C)[C@H]1CC[C@H]2[C@@H]3CCC4C[C@@H](O)CC[C@]4(C)[C@H]3CC[C@]12C` (stereo partly specified), the Body weight gain in the data set filed under Mus musculus [1] was found to be 0.52 g/day. In the data set filed under Mus musculus [2], this compound displayed a Feed consumption of 5.83 g/day. Moreover, in the data set listed under Mus musculus [3], the Feed efficiency was 0.09.
In the data set listed under Mus musculus [1], `CC[C@H](/C=C/[C@@H](C)[C@H]1CC[C@H]2[C@@H]3CC=C4CC(O)CC[C@]4(C)[C@H]3CC[C@]12C)C(C)C` (stereo partly specified) displayed a Body weight gain of 0.57 g/day. In the data set listed under Mus musculus [2], this compound had a Feed consumption of 6.3 g/day. Further, in the data set filed under Mus musculus [3], the Feed efficiency is 0.09.
In the data set listed under Mus musculus [4], `CC(C)CCC[C@@H](C)[C@H]1CC[C@H]2[C@@H]3CC[C@@H]4CC(=O)CC[C@]4(C)[C@H]3CC[C@]12C` gave a Serum cholesterol of 161.3 mg/dL. In the data set listed under Mus musculus [5], the Serum metabolite was found to be 22 mg/dL. This compound also showed a Serum triglyceride in the data set filed under Mus musculus [6] of 291.2 mg/dL. The Body weight gain in the data set listed under Mus musculus [1] is 0.5 g/day. The compound also showed an Abdominal fat in the data set listed under Mus musculus [7] of 1.25 g. The compound also came in with a Feed consumption in the data set filed under Mus musculus [2] of 5.39 g/day. In addition, in the data set filed under Mus musculus [3], the Feed efficiency was 0.09.
Turning to `CC(=O)OC1CC[C@@]2(C)C(=CC[C@H]3[C@@H]4CC[C@H]([C@H](C)CCCC(C)C)[C@@]4(C)CC[C@@H]32)C1` (stereo partly specified), the Body weight gain in the data set listed under Mus musculus [1] came to 0.52 g/day. This compound also had a Feed consumption in the data set filed under Mus musculus [2] of 5.28 g/day. Moreover, the Feed efficiency in the data set listed under Mus musculus [3] is 0.1.
In the same order, the values of `CC(C)CCC[C@@H](C)[C@H]1CC[C@H]2[C@@H]3C[C@H](Br)[C@]4(Br)CC(=O)CC[C@]4(C)[C@H]3CC[C@]12C` are 0.43 g/day, 5.72 g/day and 0.08.
In the case of `CC(C)CCC[C@@H](C)[C@H]1CC[C@H]2[C@@H]3CCC4=C(Br)C(=O)CC[C@]4(C)[C@H]3CC[C@]12C`, in the data set filed under Mus musculus [1], the Body weight gain was 0.52 g/day. For the same compound, in the data set listed under Mus musculus [2], the Feed consumption stood at 6.58 g/day. For the same compound, the Feed efficiency in the data set filed under Mus musculus [3] is 0.08.
In the data set filed under Mus musculus [1], `CC(C)CCC[C@@H](C)[C@H]1CC[C@H]2[C@@H]3C[C@H](O)[C@]4(O)CC(=O)CC[C@]4(C)[C@H]3CC[C@]12C` had a Body weight gain of 0.58 g/day. In addition, the Feed consumption in the data set listed under Mus musculus [2] turned out to be 5.39 g/day. Moreover, the Feed efficiency in the data set filed under Mus musculus [3] is 0.11.
Take `CC(C)CCC[C@@H](C)[C@H]1CC[C@H]2[C@@H]3CC=C4CCCC[C@]4(C)[C@H]3CC[C@]12C`: the Serum cholesterol in the data set listed under Mus musculus [4] was 165.8 mg/dL. Further, in the data set filed under Mus musculus [5], the Serum metabolite stood at 0 mg/dL. Besides, the Serum triglyceride in the data set filed under Mus musculus [6] amounted to 253.6 mg/dL. In the data set listed under Mus musculus [1], the Body weight gain was 0.56 g/day. Moreover, the Feed consumption in the data set listed under Mus musculus [2] was 6.95 g/day. Besides, in the data set filed under Mus musculus [3], the Feed efficiency is 0.08.
In turn, `CC(C)CCC[C@@H](C)[C@H]1CC[C@H]2[C@@H]3C=CC4=CC(=O)C=C[C@]4(C)[C@H]3CC[C@]12C` yielded a Serum cholesterol in the data set filed under Mus musculus [4] of 206.3 mg/dL. Moreover, the Serum metabolite in the data set listed under Mus musculus [5] came to 0 mg/dL. Moreover, the Serum triglyceride in the data set listed under Mus musculus [6] is 390.4 mg/dL. In addition, the Body weight gain in the data set filed under Mus musculus [1] stood at 0.27 g/day. Moreover, the Feed consumption in the data set listed under Mus musculus [2] worked out at 5.41 g/day. Also, in the data set listed under Mus musculus [3], the Feed efficiency is 0.05.
On to `CC[C@H](CC[C@@H](C)[C@H]1CC[C@H]2[C@@H]3CCC4CC(O)CC[C@]4(C)[C@H]3CC[C@]12C)C(C)C` (stereo partly specified), for which the Body weight gain in the data set filed under Mus musculus [1] came out at 0.49 g/day. In addition, the Feed consumption in the data set filed under Mus musculus [2] stood at 5.43 g/day. Besides, in the data set listed under Mus musculus [3], the Feed efficiency was 0.09.
For the compound `CC(C)CCC[C@@H](C)[C@H]1CC[C@H]2[C@@H]3CCC4=C(CSc5ccccc5)C(=O)CC[C@]4(C)[C@H]3CC[C@]12C`, the Body weight gain in the data set filed under Mus musculus [1] is 0.56 g/day. This compound showed a Feed consumption in the data set listed under Mus musculus [2] of 6.23 g/day. Besides, the Feed efficiency in the data set filed under Mus musculus [3] is 0.09.
For `CC[C@H](/C=C/[C@@H](C)[C@H]1CC[C@H]2[C@@H]3CC=C4CC(=O)CC[C@]4(C)[C@H]3CC[C@]12C)C(C)C`, in that order: 0.52 g/day, 6.37 g/day and 0.08.
For the compound `CC(C)CCC[C@@H](C)[C@H]1CC[C@H]2[C@@H]3CC=C4CC(OC(=O)c5ccccc5)CC[C@]4(C)[C@H]3CC[C@]12C` (stereo partly specified), in the data set listed under Mus musculus [1], the Body weight gain stood at 0.46 g/day. In the data set filed under Mus musculus [2], this compound yielded a Feed consumption of 5.57 g/day. The Feed efficiency in the data set filed under Mus musculus [3] was 0.08.
For `CC(C)CCC[C@@H](C)[C@H]1CC[C@H]2[C@@H]3CCC4CC(O)CC[C@]4(C)[C@H]3CC[C@]12C` (stereo partly specified), in that order: 0.58 g/day, 6.48 g/day and 0.09.
In the same order, the values of `CCCCCCCCC(=O)OC1CC[C@@]2(C)C(=CC[C@H]3[C@@H]4CC[C@H]([C@H](C)CCCC(C)C)[C@@]4(C)CC[C@@H]32)C1` (stereo partly specified) are 0.52 g/day, 5.28 g/day and 0.1.
